Here are results for 23 compounds from paper PMC10384010, “Chromatographic Data in Statistical Analysis of BBB Permeability Indices” (Membranes, 2023).

Read-outs that look alike come from different tables or passages of the source.

The nature of data set [1]: Normal-phase TLC on silica gel 60 F254 (Rf). In kind it is physicochemical. The note with it: water:methanol:acetonitrile 60:20:20, ammonium acetate pH 7.4.
Data set [2] is described as follows: Reversed-phase TLC on RP-2 silanized plates (Rf). In kind it is physicochemical. The note with it: silica gel 60 RP-2 F254 silanized; water:methanol:acetonitrile 60:20:20, ammonium acetate pH 7.4.
Experimental: The purity of the isolated substances was checked by TLC chromatography and densitometric scanning.
APIs were subjected to chromatographic in column (HPLC) and thin layer (TLC) formats. TLC chromatography was carried out on 20 cm × 20 cm glass plates by Merck, covered with silica gel and the addition of a fluorescent indicator. Merck TLC silica gel 60 F254 was used for the normal phase (NP). In the reverse phase (RP), RP-2 silanized plates were used (Merck TLC Silica gel 60 RP-2 F254, silanized). The mobile phase was buffered with ammonium acetate to pH 7.4 (LACH-NER, ammonium acetate).
Plates, after developing the chromatograms, were scanned using a densitometer (Desaga CD 60) with an analytical wavelength selected individually for drugs. The values of Rf (molecular descriptors: NP, RP) were determined.
For data set [3] the following is noted: entering the CNS / not entering the CNS; ref Drugbank [36]; cited from earlier work.
The conditions of data set [4]: cited from earlier work.
The nature of data set [5]: HPLC on IAM (immobilized artificial membrane) column, retention factor. In kind it is physicochemical. The note with it: IAM.PC.DD.2 column; for k(IAM) retention factor: 10 mM phosphate buffer pH 7.4:acetonitrile 80:20; for logkIAM: logarithm of retention factor, phosphate buffer pH 7.4:acetonitrile 80:20.
The conditions of data set [6]: cited from earlier work. This is another data set of the same source.
Setting [7] is: plasma protein binding, given as fraction, ref Drugbank.

In the case of `CN(C)CCC=C1c2ccccc2CCc2ccccc21` [amitriptyline], in data set [1], the “NP (Rf from NP TLC plate)” value amounted to 0.32. Moreover, the “RP (Rf from RP-2 TLC plate)” value in data set [2] is on record as 0.67. In addition, the “CNS+/-” value in data set [3] is 1. Also, the “Kp,uu,brain (unbound brain-to-plasma drug partition coefficient)” value in data set [4] is on record as 1.33.
For the compound `NC(=O)N1c2ccccc2C=Cc2ccccc21` [carbamazepine], the “NP (Rf from NP TLC plate)” value in data set [1] is given as 0.95. Besides, the “RP (Rf from RP-2 TLC plate)” value in data set [2] is given as 0.83. For the same compound, in data set [5], the “k(IAM) retention factor” value is 1.50 and the logkIAM is recorded as 0.18. Further, in data set [3], the “CNS+/-” value was 1. For the same compound, in data set [4], the “Kp,uu,brain (unbound brain-to-plasma drug partition coefficient)” value is on record as 0.76.
Regarding `CN(C)CCCN1c2ccccc2Sc2ccc(Cl)cc21` [chlorpromazine], the “NP (Rf from NP TLC plate)” value in data set [1] was found to be 0.43. Moreover, in data set [2], the “RP (Rf from RP-2 TLC plate)” value is reported as 0.49. In addition, in data set [5], the “k(IAM) retention factor” value worked out at 58.85 and the logkIAM is 1.77. Moreover, the “Kp,uu,brain (unbound brain-to-plasma drug partition coefficient)” value in data set [4] is 3.41. Moreover, in data set [6] (setting [7]), the “PB (protein binding)” value is 0.9.
Take `CN1CCN(C2=Nc3cc(Cl)ccc3Nc3ccccc32)CC1` [clozapine]: the “NP (Rf from NP TLC plate)” value in data set [1] amounted to 0.45. In data set [5], the “k(IAM) retention factor” value is 50.94 and the logkIAM amounted to 1.71. The “Kp,uu,brain (unbound brain-to-plasma drug partition coefficient)” value in data set [4] was 3.83. Also, the “PB (protein binding)” value in data set [6] (setting [7]) is reported as 0.99.
Turning to `CN1C[C@H](C(=O)N[C@]2(C)O[C@@]3(O)[C@@H]4CCCN4C(=O)[C@H](Cc4ccccc4)N3C2=O)C[C@@H]2c3cccc4[nH]cc(c34)C[C@H]21` [dihydroergotamine], the “NP (Rf from NP TLC plate)” value in data set [1] came to 0.72. In addition, the “RP (Rf from RP-2 TLC plate)” value in data set [2] was 0.78. Further, the “CNS+/-” value in data set [3] is recorded as 0. Also, the “Kp,uu,brain (unbound brain-to-plasma drug partition coefficient)” value in data set [4] (in vivo) was 0.02. Also, the “PB (protein binding)” value in data set [6] (plasma) was 0.93.
Take `CN(C)CCC=C1c2ccccc2COc2ccccc21` [doxepin]: the “NP (Rf from NP TLC plate)” value in data set [1] is 0.3. For the same compound, in data set [3], the “CNS+/-” value was 1. For the same compound, the “Kp,uu,brain (unbound brain-to-plasma drug partition coefficient)” value in data set [4] is recorded as 3.11. Further, the “PB (protein binding)” value in data set [6] (setting [7]) is given as 0.755.
As to `CNCCC(Oc1ccc(C(F)(F)F)cc1)c1ccccc1` (centres unmarked) [fluoxetine], the “NP (Rf from NP TLC plate)” value in data set [1] is reported as 0.68. In addition, in data set [2], the “RP (Rf from RP-2 TLC plate)” value worked out at 0.54. In data set [5], the “k(IAM) retention factor” value turned out to be 66.64 and the logkIAM is recorded as 1.82. Besides, the “Kp,uu,brain (unbound brain-to-plasma drug partition coefficient)” value in data set [4] is recorded as 5.23. Further, in data set [6] (setting [7]), the “PB (protein binding)” value is recorded as 0.945.
As to `NCC1(CC(=O)O)CCCCC1` [gabapentin], the “Kp,uu,brain (unbound brain-to-plasma drug partition coefficient)” value in data set [4] was 0.44. In data set [6] (setting [7]), the “PB (protein binding)” value is listed as 0.03.
As to `O=C(CCCN1CCC(O)(c2ccc(Cl)cc2)CC1)c1ccc(F)cc1` [haloperidol], the “NP (Rf from NP TLC plate)” value in data set [1] is recorded as 0.66. The “RP (Rf from RP-2 TLC plate)” value in data set [2] was 0.61. Moreover, in data set [5], the “k(IAM) retention factor” value came to 23.74 and the logkIAM is 1.38. Moreover, the “Kp,uu,brain (unbound brain-to-plasma drug partition coefficient)” value in data set [4] was 1.77. Moreover, the “PB (protein binding)” value in data set [6] (setting [7]) is 0.92.
With `Nc1nnc(-c2cccc(Cl)c2Cl)c(N)n1` [lamotrigine], the “NP (Rf from NP TLC plate)” value in data set [1] was 0.89. Also, the “RP (Rf from RP-2 TLC plate)” value in data set [2] is reported as 0.87. Moreover, in data set [5], the “k(IAM) retention factor” value was 0.71 and the logkIAM was -0.15. The “Kp,uu,brain (unbound brain-to-plasma drug partition coefficient)” value in data set [4] is 4.86.
`CN1CCN2c3ccccc3Cc3ccccc3C2C1` (centres unmarked) [mianserin]: the “NP (Rf from NP TLC plate)” value in data set [1] came to 0.54. The “RP (Rf from RP-2 TLC plate)” value in data set [2] is recorded as 0.55. Also, in data set [5], the “k(IAM) retention factor” value was determined as 21.72 and the logkIAM worked out at 1.34. In data set [3], the “CNS+/-” value is listed as 1. Also, in data set [4], the “Kp,uu,brain (unbound brain-to-plasma drug partition coefficient)” value was 3.22. In data set [6] (setting [7]), the “PB (protein binding)” value was 0.9.
With `Cc1ncc2n1-c1ccc(Cl)cc1C(c1ccccc1F)=NC2` [midazolam], in data set [1], the “NP (Rf from NP TLC plate)” value is recorded as 0.82. For the same compound, the “RP (Rf from RP-2 TLC plate)” value in data set [2] was found to be 0.66. Also, in data set [5], the “k(IAM) retention factor” value stood at 5.69 and the logkIAM came out at 0.76. For the same compound, the “CNS+/-” value in data set [3] is reported as 1. In addition, the “Kp,uu,brain (unbound brain-to-plasma drug partition coefficient)” value in data set [4] is reported as 1.08.
Turning to `CN1CCN2c3ncccc3Cc3ccccc3C2C1` (centres unmarked) [mirtazapine], in data set [1], the “NP (Rf from NP TLC plate)” value was 0.39. Moreover, the “RP (Rf from RP-2 TLC plate)” value in data set [2] is 0.58. Also, in data set [5], the “k(IAM) retention factor” value is listed as 5.83 and the logkIAM is listed as 0.77. In addition, the “CNS+/-” value in data set [3] was 1. Besides, the “Kp,uu,brain (unbound brain-to-plasma drug partition coefficient)” value in data set [4] is given as 3.85.
As for `CC(=O)Nc1ccc(O)cc1` [paracetamol], in data set [1], the “NP (Rf from NP TLC plate)” value is listed as 0.93. In data set [2], the “RP (Rf from RP-2 TLC plate)” value was found to be 0.92. For the same compound, in data set [5], the “k(IAM) retention factor” value is 0.32 and the logkIAM is -0.49. Further, the “CNS+/-” value in data set [3] is listed as 1. Moreover, the “Kp,uu,brain (unbound brain-to-plasma drug partition coefficient)” value in data set [4] was 0.73. In addition, the “PB (protein binding)” value in data set [6] (setting [7]) was 0.25.
Consider `CCCN1C[C@H](CSC)C[C@@H]2c3cccc4[nH]cc(c34)C[C@H]21` [pergolide], for which, in data set [1], the “NP (Rf from NP TLC plate)” value is reported as 0.48. Also, in data set [2], the “RP (Rf from RP-2 TLC plate)” value amounted to 0.55. In addition, the “CNS+/-” value in data set [3] is reported as 1. In addition, the “Kp,uu,brain (unbound brain-to-plasma drug partition coefficient)” value in data set [4] is listed as 3.19. In data set [6] (setting [7]), the “PB (protein binding)” value is given as 0.9.
As to `O=C1NC(=O)C(c2ccccc2)(c2ccccc2)N1` [phenytoin], the “NP (Rf from NP TLC plate)” value in data set [1] turned out to be 0.97. The “RP (Rf from RP-2 TLC plate)” value in data set [2] is recorded as 0.87. In data set [5], the “k(IAM) retention factor” value came out at 1.78 and the logkIAM came to 0.25. In addition, the “CNS+/-” value in data set [3] is 1. Besides, the “Kp,uu,brain (unbound brain-to-plasma drug partition coefficient)” value in data set [4] is recorded as 0.66. In addition, in data set [6] (setting [7]), the “PB (protein binding)” value was 0.9.
Turning to `OCCOCCN1CCN(C2=Nc3ccccc3Sc3ccccc32)CC1` [quetiapine], in data set [1], the “NP (Rf from NP TLC plate)” value amounted to 0.68. Further, in data set [2], the “RP (Rf from RP-2 TLC plate)” value is 0.73. Further, in data set [5], the “k(IAM) retention factor” value was found to be 17.02 and the logkIAM was found to be 1.23. For the same compound, in data set [3], the “CNS+/-” value is 1. Moreover, the “Kp,uu,brain (unbound brain-to-plasma drug partition coefficient)” value in data set [4] was 1.26. Also, the “PB (protein binding)” value in data set [6] (setting [7]) is 0.83.
Regarding `CCOC(=O)[C@H](CCc1ccccc1)N[C@@H](C)C(=O)N1Cc2ccccc2C[C@H]1C(=O)O` [quinapril], the “NP (Rf from NP TLC plate)” value in data set [1] came to 0.44. The “RP (Rf from RP-2 TLC plate)” value in data set [2] amounted to 0.57. In addition, in data set [5], the “k(IAM) retention factor” value was determined as 1.22 and the logkIAM came out at 0.09. For the same compound, in data set [3], the “CNS+/-” value was 0. In addition, the “PB (protein binding)” value in data set [6] (setting [7]) is on record as 0.97.
As for `CN(C)CCc1c[nH]c2ccc(Cn3cncn3)cc12` [rizatriptan], in data set [1], the “NP (Rf from NP TLC plate)” value came to 0.2. Further, in data set [5], the “k(IAM) retention factor” value was found to be 2.53 and the logkIAM amounted to 0.40. For the same compound, the “CNS+/-” value in data set [3] is 1. Besides, the “Kp,uu,brain (unbound brain-to-plasma drug partition coefficient)” value in data set [4] is on record as 0.04.
As for `CSc1ccc2c(c1)N(CCC1CCCCN1C)c1ccccc1S2` (centres unmarked) [thioridazine], in data set [1], the “NP (Rf from NP TLC plate)” value was found to be 0.47. Moreover, the “RP (Rf from RP-2 TLC plate)” value in data set [2] was 0.4. Also, in data set [5], the “k(IAM) retention factor” value worked out at 47.61 and the logkIAM is recorded as 1.68. Further, the “CNS+/-” value in data set [3] is given as 1. In addition, the “Kp,uu,brain (unbound brain-to-plasma drug partition coefficient)” value in data set [4] is 3.5.
Take `O=c1n(CCCN2CCN(c3cccc(Cl)c3)CC2)nc2ccccn12` [trazodone]: the “NP (Rf from NP TLC plate)” value in data set [1] came to 0.71. The “RP (Rf from RP-2 TLC plate)” value in data set [2] stood at 0.76. In addition, in data set [5], the “k(IAM) retention factor” value is given as 9.30 and the logkIAM is reported as 0.97. Further, the “CNS+/-” value in data set [3] is reported as 1. Also, in data set [4], the “Kp,uu,brain (unbound brain-to-plasma drug partition coefficient)” value is on record as 1.54. In addition, the “PB (protein binding)” value in data set [6] (setting [7]) is 0.92.
Turning to `CCCC(CCC)C(=O)O` [valproic acid], in data set [1], the “NP (Rf from NP TLC plate)” value is 0.69. The “RP (Rf from RP-2 TLC plate)” value in data set [2] is given as 0.04. Further, in data set [5], the “k(IAM) retention factor” value amounted to 0.08 and the logkIAM is on record as -1.09. Besides, the “CNS+/-” value in data set [3] is listed as 1. In addition, in data set [6] (setting [7]), the “PB (protein binding)” value is 0.85.
As for `COc1ccc(C(CN(C)C)C2(O)CCCCC2)cc1` (centres unmarked) [venlafaxine], in data set [5], the “k(IAM) retention factor” value is listed as 8.25 and the logkIAM was determined as 0.92. In addition, the “Kp,uu,brain (unbound brain-to-plasma drug partition coefficient)” value in data set [4] is listed as 1.91. The “PB (protein binding)” value in data set [6] (setting [7]) is 0.27.
